Laboratory results: patent publication US10314823B2, “Substituted 1,2-dihydro-3H-pyrrolo[1,2-c]imidazol-3-one antibacterial compounds” (IDORSIA PHARMACEUTICALS LTD, priority 2015, dated 2019)
Converted amounts (≈) assume the structure as drawn.

Experiments:
Assay in all cases: Bacterial growth minimal inhibitory concentration (CLSI broth microdilution)
Type in all cases: cell-based
K. pneumoniae A-651 = settings: multiply resistant strain (in particular quinolone-resistant), cation-adjusted Mueller-Hinton Broth; for MIC: Klebsiella pneumoniae, A651
Protocol: (§1) Minimal Inhibitory Concentrations (MICs; mg/L) were determined in cation-adjusted Mueller-Hinton Broth by a microdilution method following the description given in “Methods for Dilution Antimicrobial Susceptibility Tests for Bacteria that Grow Aerobically”, Approved standard, 7th ed., Clinical and Laboratory Standards Institute (CLSI) Document M7-A7, Wayne, Pa., USA (2006).
(§2) All Reference Example compounds were tested against several Gram-negative bacteria. K. pneumoniae A-651 is a multiply resistant strain (in particular quinolone-resistant), while E. coli ATCC25922 and P. aeruginosa ATCC27853 are quinolone-sensitive strains. The corresponding antibacterial test results are given in Table 1 hereafter (MICs in mg/L).

E. coli ATCC25922 = settings: quinolone-sensitive strain, cation-adjusted Mueller-Hinton Broth; for MIC: Escherichia coli, ATCC25922
Protocol: as §1, §2

P. aeruginosa ATCC27853 = settings: quinolone-sensitive strain, cation-adjusted Mueller-Hinton Broth; for MIC: Pseudomonas aeruginosa, ATCC27853
Protocol: as §1, §2

MIC (K. pneumoniae A-651)	MIC (E. coli ATCC25922)	MIC (P. aeruginosa ATCC27853)	MIC for K. Pneumoniae A-651 (K. pneumoniae A-651)	MIC for E. coli ATCC25922 (E. coli ATCC25922)	MIC for P. aeruginosa ATCC27853 (P. aeruginosa ATCC27853)	Structure (SMILES)
8 µg/mL (≈ 15.4 µM)	8 µg/mL (≈ 15.4 µM)	> 8 µg/mL	–	–	–	C[C@@](CCN1Cc2cc(C#CC#CC3(O)CCN(C4COC4)CC3)cn2C1=O)(C(=O)NO)S(C)(=O)=O [Example 45, (2R)—N-hydroxy-4-(6-((4-hydroxy-1-(oxetan-3-yl)piperidin-4-yl)buta-1,3-diyn-1-yl)-3-oxo-1H-pyrrolo[1,2-c]imidazol-2(3H)-yl)-2-methyl-2-(methylsulfonyl)butanamide]
1 µg/mL (≈ 2.06 µM)	0.5 µg/mL (≈ 1.03 µM)	1 µg/mL (≈ 2.06 µM)	–	–	–	CN1CC(C#Cc2ccc(-c3cc4n(c3)C(=O)N(CC[C@](C)(C(=O)NO)S(C)(=O)=O)C4)cc2)C1 [Example 85, (2R)—N-hydroxy-2-methyl-4-(6-(4-((1-methylazetidin-3-yl)ethynyl)phenyl)-3-oxo-1H-pyrrolo[1,2-c]imidazol-2(3H)-yl)-2-(methylsulfonyl)butanamide]
1 µg/mL (≈ 2.03 µM)	0.5 µg/mL (≈ 1.02 µM)	1 µg/mL (≈ 2.03 µM)	–	–	–	C[C@@](CCN1Cc2cc(C#CC#CCOC(=O)N3CC(O)C3)cn2C1=O)(C(=O)NO)S(C)(=O)=O [Example 24, (3R)-5-(2-(4-(hydroxyamino)-3-methyl-3-(methylsulfonyl)-4-oxobutyl)-3-oxo-2,3-dihydro-1H-pyrrolo[1,2-c]imidazol-6-yl)penta-2,4-diyn-1-yl 3-hydroxyazetidine-1-carboxylate]
0.25 µg/mL (≈ 0.538 µM)	0.063 µg/mL (≈ 0.136 µM)	0.5 µg/mL (≈ 1.08 µM)	–	–	–	CN1C[C@H](C#CC#Cc2cc3n(c2)C(=O)N(CC[C@](C)(C(=O)NO)S(C)(=O)=O)C3)[C@H]1CF [Example 98, (2R)—N-hydroxy-4-(6-(((2S,3S)-2-(fluoromethyl)-1-methylazetidin-3-yl)buta-1,3-diyn-1-yl)-3-oxo-1H-pyrrolo[1,2-c]imidazol-2(3H)-yl)-2-methyl-2-(methylsulfonyl)butanamide]
2 µg/mL (≈ 4.31 µM)	0.5 µg/mL (≈ 1.08 µM)	0.5 µg/mL (≈ 1.08 µM)	–	–	–	C[C@@](CCN1Cc2cc(C#CC#C[C@@H]3C[C@H]3[C@H](O)CO)cn2C1=O)(C(=O)NO)S(C)(=O)=O [Example 7, (2R)-4-(6-(((1R,2R)-2-((S)-1,2-dihydroxyethyl)cyclopropyl)buta-1,3-diyn-1-yl)-3-oxo-1H-pyrrolo[1,2-c]imidazol-2(3H)-yl)-N-hydroxy-2-methyl-2-(methylsulfonyl)butanamide]
2 µg/mL (≈ 4.34 µM)	1 µg/mL (≈ 2.17 µM)	1 µg/mL (≈ 2.17 µM)	–	–	–	CC(=O)N1CC(C#CC#Cc2cc3n(c2)C(=O)N(CC[C@](C)(C(=O)NO)S(C)(=O)=O)C3)C1 [Example 32, (2R)-4-(6-((1-acetylazetidin-3-yl)buta-1,3-diyn-1-yl)-3-oxo-1H-pyrrolo[1,2-c]imidazol-2(3H)-yl)-N-hydroxy-2-methyl-2-(methylsulfonyl)butanamide]
–	–	–	0.5 µg/mL	0.5 µg/mL	1 µg/mL	C[C@@](CCN1Cc2cc(C#CC#CC3CN([C@H]4C[C@@H](O)C4)C3)cn2C1=O)(C(=O)NO)S(C)(=O)=O [Example 91, (2R)—N-hydroxy-4-(6-((1-((1s,3s)-3-hydroxycyclobutyl)azetidin-3-yl)buta-1,3-diyn-1-yl)-3-oxo-1H-pyrrolo[1,2-c]imidazol-2(3H)-yl)-2-methyl-2-(methylsulfonyl)butanamide]
1 µg/mL (≈ 2.1 µM)	1 µg/mL (≈ 2.1 µM)	0.5 µg/mL (≈ 1.05 µM)	–	–	–	CN1C[C@@H](C#CC#Cc2cc3n(c2)C(=O)N(CC[C@](C)(C(=O)NO)S(C)(=O)=O)C3)C[C@@H]1CO (single isomer, unassigned) [Example 94]
1 µg/mL (≈ 2.24 µM)	1 µg/mL (≈ 2.24 µM)	1 µg/mL (≈ 2.24 µM)	–	–	–	CN1CC(C)(C#CC#Cc2cc3n(c2)C(=O)N(CC[C@](C)(C(=O)NO)S(C)(=O)=O)C3)C1 [Example 65, (2R)-4-(6-((1,3-dimethylazetidin-3-yl)buta-1,3-diyn-1-yl)-3-oxo-1H-pyrrolo[1,2-c]imidazol-2(3H)-yl)-N-hydroxy-2-methyl-2-(methylsulfonyl)butanamide]
2 µg/mL (≈ 4.32 µM)	2 µg/mL (≈ 4.32 µM)	2 µg/mL (≈ 4.32 µM)	–	–	–	CN1C[C@H](O)[C@@H](C#CC#Cc2cc3n(c2)C(=O)N(CC[C@](C)(C(=O)NO)S(C)(=O)=O)C3)C1 (relative stereo) [Example 99, (2R)—N-hydroxy-4-(6-(((3S*,4R*)-4-hydroxy-1-methylpyrrolidin-3-yl)buta-1,3-diyn-1-yl)-3-oxo-1H-pyrrolo[1,2-c]imidazol-2(3H)-yl)-2-methyl-2-(methylsulfonyl)butanamide]
0.5 µg/mL (≈ 1.16 µM)	0.5 µg/mL (≈ 1.16 µM)	0.5 µg/mL (≈ 1.16 µM)	–	–	–	CN1CC(C#CC#Cc2cc3n(c2)C(=O)N(CC[C@](C)(C(=O)NO)S(C)(=O)=O)C3)C1 [Example 30, (2R)—N-hydroxy-2-methyl-4-(6-((1-methylazetidin-3-yl)buta-1,3-diyn-1-yl)-3-oxo-1H-pyrrolo[1,2-c]imidazol-2(3H)-yl)-2-(methylsulfonyl)butanamide]
4 µg/mL (≈ 7.99 µM)	0.5 µg/mL (≈ 0.999 µM)	0.25 µg/mL (≈ 0.5 µM)	–	–	–	C[C@@](CCN1Cc2cc(C#CC#CC3CN(CC(F)(F)F)C3)cn2C1=O)(C(=O)NO)S(C)(=O)=O [Example 58, (2R)—N-hydroxy-2-methyl-2-(methylsulfonyl)-4-(3-oxo-6-((1-(2,2,2-trifluoroethyl)azetidin-3-yl)buta-1,3-diyn-1-yl)-1H-pyrrolo[1,2-c]imidazol-2(3H)-yl)butanamide]
0.5 µg/mL	0.25 µg/mL	2 µg/mL	–	–	–	CN1CC[C@@](F)(C#CC#Cc2cc3n(c2)C(=O)N(CC[C@](C)(C(=O)NO)S(C)(=O)=O)C3)C1.O=C(O)C(F)(F)F (single isomer, unassigned) [Example 71]
2 µg/mL (≈ 4.2 µM)	2 µg/mL (≈ 4.2 µM)	2 µg/mL (≈ 4.2 µM)	–	–	–	C[C@@](CCN1Cc2cc(C#CC#CCN3CCC(O)CC3)cn2C1=O)(C(=O)NO)S(C)(=O)=O [Example 40, (2R)—N-hydroxy-4-(6-(5-(4-hydroxypiperidin-1-yl)penta-1,3-diyn-1-yl)-3-oxo-1H-pyrrolo[1,2-c]imidazol-2(3H)-yl)-2-methyl-2-(methylsulfonyl)butanamide]
0.25 µg/mL (≈ 0.555 µM)	0.25 µg/mL (≈ 0.555 µM)	2 µg/mL (≈ 4.44 µM)	–	–	–	CN1CC(F)(C#CC#Cc2cc3n(c2)C(=O)N(CC[C@](C)(C(=O)NO)S(C)(=O)=O)C3)C1 [Example 33, (2R)-4-(6-((3-fluoro-1-methylazetidin-3-yl)buta-1,3-diyn-1-yl)-3-oxo-1H-pyrrolo[1,2-c]imidazol-2(3H)-yl)-N-hydroxy-2-methyl-2-(methylsulfonyl)butanamide]
8 µg/mL	1 µg/mL	2 µg/mL	–	–	–	COCCN(C)CC(O)c1ccc(C#Cc2cc3n(c2)C(=O)N(CC[C@](C)(C(=O)NO)S(C)(=O)=O)C3)cc1 (mixture of isomers) [Example 28, (2R)—N-hydroxy-4-(6-((RS)-(4-(1-hydroxy-2-((2-methoxyethyl)(methyl)amino)ethyl)phenyl)ethynyl)-3-oxo-1H-pyrrolo[1,2-c]imidazol-2(3H)-yl)-2-methyl-2-(methylsulfonyl)butanamide]
0.25 µg/mL (≈ 0.459 µM)	0.25 µg/mL (≈ 0.459 µM)	1 µg/mL (≈ 1.84 µM)	–	–	–	C[C@@](CCN1Cc2cc(C#Cc3ccc(COC(=O)N4CC(O)C4)cc3)cn2C1=O)(C(=O)NO)S(C)(=O)=O [Example 10, (3R)-4-((2-(4-(hydroxyamino)-3-methyl-3-(methylsulfonyl)-4-oxobutyl)-3-oxo-2,3-dihydro-1H-pyrrolo[1,2-c]imidazol-6-yl)ethynyl)benzyl 3-hydroxyazetidine-1-carboxylate]
4 µg/mL (≈ 7.57 µM)	2 µg/mL (≈ 3.78 µM)	1 µg/mL (≈ 1.89 µM)	–	–	–	CC(=O)N1CC(O)(c2ccc(C#Cc3cc4n(c3)C(=O)N(CC[C@](C)(C(=O)NO)S(C)(=O)=O)C4)cc2)C1 [Example 6, (2R)-4-(6-((4-(1-acetyl-3-hydroxyazetidin-3-yl)phenyl)ethynyl)-3-oxo-1H-pyrrolo[1,2-c]imidazol-2(3H)-yl)-N-hydroxy-2-methyl-2-(methylsulfonyl)butanamide]
1 µg/mL (≈ 1.99 µM)	0.5 µg/mL (≈ 0.995 µM)	2 µg/mL (≈ 3.98 µM)	–	–	–	C[C@@](CCN1Cc2cc(C#CC#CC3CCN(C4COC4)CC3)cn2C1=O)(C(=O)NO)S(C)(=O)=O [Example 35, (2R)—N-hydroxy-2-methyl-2-(methylsulfonyl)-4-(6-((1-(oxetan-3-yl)piperidin-4-yl)buta-1,3-diyn-1-yl)-3-oxo-1H-pyrrolo[1,2-c]imidazol-2(3H)-yl)butanamide]
0.5 µg/mL	0.5 µg/mL	2 µg/mL	–	–	–	CN1CC[C@](F)(C#CC#Cc2cc3n(c2)C(=O)N(CC[C@](C)(C(=O)NO)S(C)(=O)=O)C3)C1.O=C(O)C(F)(F)F (single isomer, unassigned) [Example 72]
1 µg/mL (≈ 1.92 µM)	1 µg/mL (≈ 1.92 µM)	2 µg/mL (≈ 3.85 µM)	–	–	–	CN1CCN(C(=O)OCC#CC#Cc2cc3n(c2)C(=O)N(CC[C@](C)(C(=O)NO)S(C)(=O)=O)C3)CC1 [Example 50, (3R)-5-(2-(4-(hydroxyamino)-3-methyl-3-(methylsulfonyl)-4-oxobutyl)-3-oxo-2,3-dihydro-1H-pyrrolo[1,2-c]imidazol-6-yl)penta-2,4-diyn-1-yl 4-methylpiperazine-1-carboxylate]
4 µg/mL (≈ 7.17 µM)	2 µg/mL (≈ 3.59 µM)	8 µg/mL (≈ 14.3 µM)	–	–	–	CN1CC(OC(=O)NCc2ccc(C#Cc3cc4n(c3)C(=O)N(CC[C@](C)(C(=O)NO)S(C)(=O)=O)C4)cc2)C1 [Example 27, 1-methylazetidin-3-yl (3R)-(4-((2-(4-(hydroxyamino)-3-methyl-3-(methylsulfonyl)-4-oxobutyl)-3-oxo-2,3-dihydro-1H-pyrrolo[1,2-c]imidazol-6-yl)ethynyl)benzyl)carbamate]
